Measurements: ChEMBL document CHEMBL4396891, “Recent update on anti-dengue drug discovery” (Eur J Med Chem, 2019)
Converted amounts (≈) assume the structure as drawn.

Legend:
[1] = system: dengue virus type 1; assay: Antiviral activity against DENV1 infected in human Huh7 cells assessed as reduction in viral yield after 48 hrs by MTT assay; type: functional, organism-based; conditions: Huh-7, 48 h, pooled result: one value given for 4 cell lines, strains, targets or settings
[2] = system: dengue virus type 2; assay: Antiviral activity against DENV2 […] infected in African green monkey Vero cells by qRT-PCR analysis; type: functional, organism-based
[3] = system: dengue virus type 2; assay: Virucidal activity against DENV2 infected in human HepG2 cells; type: functional, organism-based
[4] = system: dengue virus type 2; assay: Virucidal activity against DENV2 infected in human HeLa cells; type: functional, organism-based
[5] = system: dengue virus type 1; assay: Antiviral activity against DENV1 02-20 infected in African green monkey Vero cells after 3 days by focus reduction assay; type: functional, organism-based; conditions: 02-20, Vero, 72 h
[6] = system: dengue virus type 2; assay: Antiviral activity against DENV2 16681 infected in African green monkey Vero cells after 3 days by focus reduction assay; type: functional, organism-based; conditions: Dengue virus, 16681, Vero, 72 h
[7] = system: dengue virus type 3; assay: Antiviral activity against DENV3 00-40 infected in African green monkey Vero cells after 3 days by focus reduction assay; type: functional, organism-based; conditions: 00-40, Vero, 72 h
[8] = system: dengue virus type 4; assay: Antiviral activity against DENV4 09-48 infected in African green monkey Vero cells after 3 days by focus reduction assay; type: functional, organism-based; conditions: 09-48, Vero, 72 h
[9] = system: dengue virus type 2; assay: Antiviral activity against DENV2 infected in BHK cells assessed as reduction in viral Yield at 20 uM after 48 hrs by fluorescence focus formation assay relative to control; type: functional; design: scale not given: the % may be the effect or the level left
[10] = system: dengue virus type 2; assay: Antiviral activity against DENV2 infected in human Huh7 cells assessed as reduction in viral Yield at 20 uM after 48 hrs by fluorescence focus formation assay relative to control; type: functional; design: scale not given: the % may be the effect or the level left
[11] = system: dengue virus type 1; assay: Antiviral activity against DENV1 infected in mouse RAW 264.7 cells by MTT assay; type: functional, organism-based; conditions: RAW264.7
[12] = system: dengue virus type 2; assay: Antiviral activity against DENV2 infected in mouse RAW 264.7 cells by MTT assay; type: functional, organism-based; conditions: RAW264.7
[13] = system: dengue virus type 3; assay: Antiviral activity against DENV3 infected in mouse RAW 264.7 cells by MTT assay; type: functional, organism-based; conditions: RAW264.7
[14] = system: dengue virus type 4; assay: Antiviral activity against DENV4 infected in mouse RAW 264.7 cells by MTT assay; type: functional, organism-based; conditions: RAW264.7
[15] = target: T1, Genome polyprotein (dengue virus type 2, UniProt P29990); assay: Inhibition of Dengue virus NS2B-NS3 serine protease expressed in mouse RAW 264.7 cells; type: cell-based
[16] = system: dengue virus type 1; assay: Antiviral activity against DENV1 after 48 hrs by focus reduction assay; type: functional, organism-based
[17] = system: dengue virus type 2; assay: Antiviral activity against DENV2 after 48 hrs by focus reduction assay; type: functional, organism-based
[18] = system: dengue virus type 3; assay: Antiviral activity against DENV3 after 48 hrs by focus reduction assay; type: functional, organism-based
[19] = system: dengue virus type 4; assay: Antiviral activity against DENV4 after 48 hrs by focus reduction assay; type: functional, organism-based
[20] = target: T1, Genome polyprotein; assay: Inhibition of His-tagged DENV2 NS2B-NS3 serine protease expressed in Escherichia coli BL21 using Boc-Gly-Arg-Arg-7-amino-4-methylcoumarin as substrate measured after 10 mins by fluorometric assay
[21] = system: dengue virus type 1; assay: Antiviral activity against DENV1 infected in African green monkey Vero cells assessed as reduction in viral replication after 4 days by qRT-PCR analysis; type: functional, organism-based; conditions: 96 h
[22] = system: dengue virus type 2; assay: Antiviral activity against DENV2 infected in African green monkey Vero cells assessed as reduction in viral replication after 4 days by qRT-PCR analysis; type: functional, organism-based; conditions: 96 h
[23] = system: dengue virus type 3; assay: Antiviral activity against DENV3 infected in African green monkey Vero cells assessed as reduction in viral replication after 4 days by qRT-PCR analysis; type: functional, organism-based; conditions: 96 h
[24] = system: dengue virus type 4; assay: Antiviral activity against DENV4 infected in African green monkey Vero cells assessed as reduction in viral replication after 4 days by qRT-PCR analysis; type: functional, organism-based; conditions: 96 h
[25] = system: dengue virus type 2; assay: Antiviral activity against DENV2 infected in monkey LLC-MK2 cells; type: functional, organism-based
[26] = system: Dengue virus; assay: Antiviral activity against Dengue virus infected in human HepG2 cells assessed as viral production at 150 uM after 1 hrs by flow cytometry analysis relative to control; type: functional
[27] = system: dengue virus type 2; assay: Antiviral activity against DENV2 infected in human HepG2 cells; type: functional, organism-based
[28] = target: T1, Genome polyprotein; assay: Inhibition of His-tagged DENV2 NS2B-NS3 serine protease expressed in baculovirus infected sf9 cells
[29] = target: T1, Genome polyprotein; assay: Inhibition of His-tagged DENV2 NS2B-NS3 serine protease
[30] = system: dengue virus type 2; assay: Antiviral activity against DENV2 infected in human Huh-7 cells assessed as reduction in viral infection; type: functional, organism-based
[31] = system: dengue virus type 2; assay: Antiviral activity against DENV2 16681 infected in human Huh7 cells after 3 days by RT-qPCR analysis; type: functional, organism-based; conditions: Dengue virus, 16681, Huh-7, 72 h
[32] = target: T1, Genome polyprotein; assay: Inhibition of DENV2 NS2B-NS3 serine protease expressed in human Huh7 cells after 3 days by Phospha-Light SEAP reporter gene Assay; type: cell-based
[33] = target: T1, Genome polyprotein; assay: Inhibition of DENV2 NS2B-NS3 serine protease using Boc-GRR-AMC as substrate after 30 mins
[34] = system: dengue virus type 1; assay: Antiviral activity against DENV1 infected in African green monkey Vero cells assessed as virus yield reduction after 48 hrs by measuring plaque forming units titration; type: functional, organism-based
[35] = system: dengue virus type 2; assay: Antiviral activity against DENV2 infected in African green monkey Vero cells assessed as virus yield reduction after 48 hrs by measuring plaque forming units titration; type: functional, organism-based
[36] = system: dengue virus type 3; assay: Antiviral activity against DENV3 infected in African green monkey Vero cells assessed as virus yield reduction after 48 hrs by measuring plaque forming units titration; type: functional, organism-based
[37] = system: dengue virus type 4; assay: Antiviral activity against DENV4 infected in African green monkey Vero cells assessed as virus yield reduction after 48 hrs by measuring plaque forming units titration; type: functional, organism-based

Q: For `O=C1[C@H](CC[C@H](O)c2ccc(F)cc2)[C@@H](c2ccc(O)cc2)N1c1ccc(F)cc1` [EZETIMIBE], which IC50 [1] is on record?
A: 13.1 µM

Q: For `CC[C@@H]([C@H](C)O)n1ncn(-c2ccc(N3CCN(c4ccc(OC[C@@H]5CO[C@@](Cn6cncn6)(c6ccc(F)cc6F)C5)cc4)CC3)cc2)c1=O` [POSACONAZOLE], which EC50 [2] is on record?
A: 4.1 µM

Q: `C=C1CC[C@@H]2[C@](C)(CO)[C@H](O)CC[C@@]2(C)[C@@H]1C/C=C1/C(=O)OC[C@H]1O` [ANDROGRAPHOLIDE] was tested. Which EC50 [3] did it give?
A: 21.3 µM

Q: What about the EC50 [4] of the same compound?
A: 22.7 µM

Q: With `CC(C)C[C@H]1C(=O)N2CCC[C@H]2[C@]2(O)O[C@](NC(=O)[C@@H]3C=C4c5cccc6[nH]c(Br)c(c56)C[C@H]4N(C)C3)(C(C)C)C(=O)N12` [BROMOCRIPTINE] as the compound, how does the EC50 [5] read?
A: 1.6 µM

Q: What about the EC50 [6] of the same compound?
A: 0.8 to 1.2 µM

Q: What about the EC50 [7] of the same compound?
A: 0.8 to 1.2 µM

Q: What about the EC50 [8] of the same compound?
A: 0.8 to 1.2 µM

Q: With `C=CCc1ccc(O)c(-c2ccc(O)c(CC=C)c2)c1` [HONOKIOL] as the compound, how does the Activity [9] read?
A: >90%

Q: And the Activity [10]?
A: >90%

Q: How did the EC50 [11] turn out when `CC(=O)O[C@H]1CC(C)(C)C(=C=C/C(C)=C/C=C/C=C/C=C(C)/C=C2C=C(/C=C/[C@@]34O[C@]3(C)C[C@@H](O)CC4(C)C)C(=O)O/2)[C@](C)(O)C1` was run?
A: 5.84 to 7.62 µM

Q: What about the EC50 [12] of the same compound?
A: 5.84 to 7.62 µM

Q: What about the EC50 [13] of the same compound?
A: 5.84 to 7.62 µM

Q: What about the EC50 [14] of the same compound?
A: 5.84 to 7.62 µM

Q: And the EC50 [15]?
A: 8.5 µM

Q: What does the source list for `C[C@H]1CCC/C=C/[C@@H]2C[C@H](O)C[C@H]2[C@H](O)/C=C/C(=O)O1` [BREFELDIN A]?
A: EC50 [16]: 54.6 to 65.7 µM; EC50 [17]: 54.6 to 65.7 µM; EC50 [18]: 54.6 to 65.7 µM; EC50 [19]: 54.6 to 65.7 µM

Q: With `O=C(Nc1nc2cc(O)c(O)cc2s1)c1ccccc1Sc1ccc(C(F)(F)F)cc1` as the compound, how does the IC50 [20] read?
A: 3.6 µM

Q: What about the EC50 [21] of the same compound?
A: 0.1 to 3 µM

Q: And the EC50 [22]?
A: 0.1 µM

Q: What about the EC50 [23] of the same compound?
A: 0.1 µM

Q: And the EC50 [24]?
A: 0.1 µM

Q: With `C=C(C)[C@@H]1CC[C@]2(C)CC[C@]3(C)[C@H](CC[C@@H]4[C@@]5(C)CC[C@H](O)C(C)(C)[C@@H]5CC[C@]43C)[C@@H]12` [LUPEOL] as the compound, how does the EC50 [25] read?
A: 9.77 µM

Q: For `C=C[C@H]1CN2CC[C@H]1C[C@H]2[C@H](O)c1ccnc2ccc(OC)cc12` [QUININE], which Activity [26] is on record?
A: 19%

Q: With `COc1ccc([C@@H]2CC(=O)c3c(O)cc(O[C@@H]4O[C@H](CO[C@@H]5OC[C@](O)(CO)[C@H]5O)[C@@H](O)[C@H](O)[C@H]4O)cc3O2)cc1` as the compound, how does the IC50 [27] read?
A: 13.1 µg/mL (≈ 22.6 µM)

Q: For `COC(=O)c1[nH]c2ccc(Cl)cc2c1C(=O)c1cc(OC)c(O)c(OC)c1`, which IC50 [28] is on record?
A: 6.7 µM

Q: And the IC50 [29]?
A: 4.7 µM

Q: And the EC50 [30]?
A: 4.6 µM

Q: What about the EC50 [31] of the same compound?
A: 4.6 µM

Q: And the IC50 [32]?
A: 6.7 µM

Q: What about the IC50 [33] of the same compound?
A: 4.7 µM

Q: With `C=CCn1c2ccccc2c(=O)c2cc(Cl)ccc21` as the compound, how does the EC50 [34] read?
A: 12.5 to 27.1 µM

Q: What about the EC50 [35] of the same compound?
A: 12.5 to 27.1 µM

Q: What about the EC50 [36] of the same compound?
A: 12.5 to 27.1 µM

Q: What about the EC50 [37] of the same compound?
A: 12.5 to 27.1 µM
